Earlier results as cited in patent publication US10029019B1, “Method for mitigating osteoporosis using metallic gold cluster molecules” (priority 2017, dated 2018).

What was measured:
[1] = tested on: RANKL-induced NF-κβ activation; conditions: RAW 264.7 monocytes during osteoclast differentiation
BMMs = conditions: up to 200 μM in BMMs in vitro

SMILES | formation of RAW264.7 precursor cells into osteoclasts (RAW264.7 cells) | further results
O=C1c2c(O)cccc2C([C@@H]2O[C@H](CO)[C@@H](O)[C@H](O)[C@H]2O)c2cc(CO)cc(O)c21 (stereo partly shown) [Aloin] | prevent osteoclast differentiation | 
O=C(/C=C/c1ccc(O)c(O)c1)OCCc1ccccc1 [Caffeic Acid Phenethyl Ester (CAPE), Caffeic Acid Phenethyl Ester] |  | RANKL-induced NF-κβ activation [1]: inhibit
[HH] [Hydrogen molecules] | inhibit | 
[Cl][La]([Cl])[Cl] [Lanthianum Chloride] |  | reduction of gene expression that leads towards osteoclastic differentiation (BMMs): 50%
